This note sets out measurements from ChEMBL document CHEMBL1201862, “PubChem BioAssay data set” (2004).

Molecules are shown by their SMILES.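 Step 1: Grow cells in 96-well plates. Step 2: Expose to compound for 48 hours at 5 concentrations. Step 3: Interpolate endpoints linearly; if unreached, use highest concentration. GI50 marks 50% less growth.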 Active and inactive are the calls of the source. Rule as the data show it: active = GI50 up to about 1.1 µM and inactive = higher. Some results are limits rather than exact numbers.

Among the test systems are SNB-19; HL-60; MDA-N; NCI-H460; LOX IMVI; CAKI-1; HCC 2998; 786-0; CCRF-CEM; SW-620; NCI-H23; KM12; U-251; BT-549; HCT-15; MDA-MB-231; SK-MEL-28; A549; HOP-92; UACC-257.
What all share (experiment): NCI-60 cell line screen, 48 h

Consider `O=C(O)CO/N=C1/C(=C2/C(=O)Nc3ccccc32)Nc2ccccc21`, for which the GI50 in the experiment with SNB-19 is > 100 µM (inactive); in the experiment with HL-60 it was 64.4 µM (inactive); in the experiment with MDA-N, 50.9 µM (inactive); with NCI-H460, 72.8 µM (inactive); with LOX IMVI it was 28.4 µM (inactive); in the experiment on CAKI-1, 25.8 µM (inactive). Further, the GI50 in the experiment with HCC 2998 is 33.1 µM (inactive); in the experiment on 786-0, 63.4 µM (inactive); in the experiment with CCRF-CEM, 43.1 µM (inactive); with SW-620, 62.5 µM (inactive); with NCI-H23, 31.6 µM (inactive); in the experiment with KM12 it was 2.99 µM (inactive). Further, the GI50 with U-251 is 82.6 µM (inactive); with BT-549, 51.9 µM (inactive); with HCT-15 it was 35.6 µM; in the experiment with MDA-MB-231, 62.8 µM (inactive); in the experiment on SK-MEL-28 it was 50.8 µM (inactive); in the experiment with A549, > 100 µM (inactive). The GI50 is 37.9 µM (inactive) in the experiment on HOP-92 and > 100 µM (inactive) in the experiment with UACC-257.
In the case of `CO[C@H]1C[C@H](O[C@H]2CC[C@]3(C=O)[C@H]4CC[C@]5(C)[C@@H](C6=CC(=O)OC6)CC[C@]5(O)[C@@H]4CC[C@]3(O)C2)O[C@H](C)[C@H]1O[C@@H]1O[C@H](CO)[C@@H](O)[C@H](O)[C@H]1O`, the GI50 with SNB-19 was 8.93e-05 µM (active); in the experiment on HL-60, > 0.01 µM (active); in the experiment on MDA-N it was 3.94e-05 µM (active); with NCI-H460 it was 9.04e-06 µM (active); in the experiment on LOX IMVI it was 2.61e-05 µM (active); in the experiment on CAKI-1 it was 1.34e-05 µM (active). In addition, the GI50 in the experiment with HCC 2998 was > 0.01 µM (active); in the experiment with 786-0 it was > 0.01 µM (active); in the experiment on CCRF-CEM it was > 0.01 µM (active); in the experiment on SW-620, 3.16e-05 µM (active); in the experiment on NCI-H23 it was 7.87e-06 µM (active); in the experiment with KM12, 9.1e-05 µM (active). The GI50 was 4.07e-05 µM (active) with U-251; 1.22e-05 µM (active) in the experiment with BT-549; 3.94e-05 µM with HCT-15; 0.000173 µM (active) in the experiment on MDA-MB-231; 6.43e-05 µM (active) with SK-MEL-28; 4.46e-06 µM (active) in the experiment with A549. The figures for the GI50 in the experiment with HOP-92 and in the experiment on UACC-257 were 5.83e-05 µM (active) and 8.22e-05 µM (active), respectively.
As for `O=c1cc(N2CCOCC2)[nH]c(=O)n1-c1cccc(C(F)(F)F)c1`, the GI50 with HL-60, in the experiment with MDA-N, in the experiment on NCI-H460, with LOX IMVI, in the experiment on CAKI-1 and in the experiment on HCC 2998 was > 100 µM (inactive) in each case. The GI50 with 786-0 was > 100 µM (inactive); with CCRF-CEM it was > 100 µM (inactive); in the experiment on SW-620, > 100 µM (inactive); in the experiment with NCI-H23, > 100 µM (inactive); in the experiment with KM12 it was > 100 µM (inactive); in the experiment on U-251, 64.7 µM (inactive). In addition, the GI50 in the experiment on BT-549 is > 100 µM (inactive); in the experiment on HCT-15, greater than 100 µM; with MDA-MB-231, 20.7 µM (inactive); in the experiment on SK-MEL-28, > 100 µM (inactive); in the experiment with A549, > 100 µM (inactive); in the experiment on HOP-92, > 100 µM (inactive). Moreover, the GI50 in the experiment with UACC-257 was > 100 µM (inactive).
Take `O=P1(c2ccccc2)C(c2ccccc2)CCC1c1ccccc1` (stereo not given): the GI50 was > 100 µM (inactive) in the experiment on SNB-19; 10.2 µM (inactive) in the experiment with HL-60; 15.1 µM (inactive) in the experiment on MDA-N; 41.1 µM (inactive) in the experiment with LOX IMVI; 16.4 µM (inactive) in the experiment with CAKI-1; > 100 µM (inactive) in the experiment on HCC 2998. Also, the GI50 with 786-0 was > 100 µM (inactive); in the experiment with CCRF-CEM, 21.4 µM (inactive); in the experiment with SW-620, 89.9 µM (inactive); in the experiment on NCI-H23 it was 48.4 µM (inactive); in the experiment on KM12 it was 30 µM (inactive); in the experiment on BT-549, 29.7 µM (inactive). The GI50 with HCT-15 was 28.8 µM; in the experiment on MDA-MB-231, 42.9 µM (inactive); with SK-MEL-28 it was > 100 µM (inactive); in the experiment with A549 it was 65.8 µM (inactive); in the experiment on HOP-92 it was 45 µM (inactive); with UACC-257 it was 71.1 µM (inactive).
For the molecule `COC(=O)/C(C#N)=C(\Nc1ccccc1)N1CCCC1`, the GI50 in the experiment on SNB-19, with HL-60, with MDA-N, in the experiment with NCI-H460, in the experiment on LOX IMVI and in the experiment on CAKI-1 was > 100 µM (inactive) each time. Besides, the GI50 in the experiment with HCC 2998, in the experiment on 786-0, with SW-620, with NCI-H23, with U-251 and with BT-549 was > 100 µM (inactive) in each case. For the same molecule, the GI50 with HCT-15 was greater than 100 µM; in the experiment with MDA-MB-231, > 100 µM (inactive); in the experiment on SK-MEL-28, > 100 µM (inactive); in the experiment with A549, > 100 µM (inactive); with HOP-92, > 100 µM (inactive); with UACC-257, > 100 µM (inactive).
Take `CCOC(=O)Cc1csc(N/N=C2\C(=O)Nc3ccccc32)n1`: the GI50 with SNB-19 was 26.9 µM (inactive); with HL-60, 19.7 µM (inactive); in the experiment with MDA-N, 41.8 µM (inactive); in the experiment with NCI-H460, 33.4 µM (inactive); with LOX IMVI, 48.8 µM (inactive); with CAKI-1, 32.5 µM (inactive). Also, the GI50 is 59 µM (inactive) in the experiment with HCC 2998; 69.5 µM (inactive) with 786-0; 28.4 µM (inactive) with CCRF-CEM; 48.9 µM (inactive) in the experiment on SW-620; 32.6 µM (inactive) in the experiment with NCI-H23; 31.2 µM (inactive) with KM12. The GI50 with U-251 was 42.4 µM (inactive); in the experiment on BT-549, 32.7 µM (inactive); in the experiment on HCT-15, 41 µM; in the experiment with MDA-MB-231, 43 µM (inactive); in the experiment on A549 it was 41.6 µM (inactive); in the experiment on HOP-92, 42.2 µM (inactive). For the same molecule, in the experiment with UACC-257, the GI50 is 74.5 µM (inactive).
Consider `O=C(O)c1cc(O)c2c(c1)C([C@@H]1c3cccc(O)c3C(=O)c3c(O)cc(C(=O)O)cc31)c1cccc(O)c1C2=O` (stereo not given in full), for which the GI50 in the experiment with SNB-19 was 57 µM (inactive); in the experiment with HL-60, 29.9 µM (inactive); in the experiment with MDA-N it was 20.3 µM (inactive); with NCI-H460, > 100 µM (inactive); in the experiment with LOX IMVI it was 15.8 µM (inactive); with CAKI-1 it was > 100 µM (inactive). The GI50 is 47.4 µM (inactive) with HCC 2998; 51.5 µM (inactive) in the experiment on 786-0; 30.5 µM (inactive) in the experiment with CCRF-CEM; 35.4 µM (inactive) in the experiment on SW-620; 30.4 µM (inactive) in the experiment with NCI-H23; 20.5 µM (inactive) in the experiment with KM12. Besides, the GI50 with U-251 is 25.4 µM (inactive); in the experiment with BT-549 it was 51.1 µM (inactive); with MDA-MB-231, 23.5 µM (inactive); in the experiment with SK-MEL-28, 33.2 µM (inactive); in the experiment on A549, > 100 µM (inactive); in the experiment on HOP-92, 23.2 µM (inactive). In the experiment with UACC-257, the GI50 was 35.5 µM (inactive).
Take `Cc1nc2ccccc2c(=O)n1NC(=O)c1ccc(CS)cc1`: the GI50 was 38.2 µM (inactive) in the experiment with SNB-19; 2.7 µM (inactive) with HL-60; > 10 µM (inactive) in the experiment on MDA-N; 19 µM (inactive) in the experiment on NCI-H460; 0.145 µM (active) in the experiment with LOX IMVI; 18.5 µM (inactive) with HCC 2998. Besides, the GI50 is 11.5 µM (inactive) with 786-0; 0.82 µM (active) in the experiment on CCRF-CEM; 6 µM (inactive) in the experiment on SW-620; 15.6 µM (inactive) in the experiment with NCI-H23; 15.3 µM (inactive) in the experiment on KM12; 3.94 µM (inactive) in the experiment with U-251. For the same molecule, the GI50 in the experiment on BT-549 was 13.7 µM (inactive); with HCT-15, 16.4 µM; in the experiment with MDA-MB-231, 13 µM (inactive); in the experiment with SK-MEL-28, 12.7 µM (inactive); in the experiment on A549, 7.48 µM (inactive); with HOP-92 it was 7.85 µM (inactive). In the experiment on UACC-257, the GI50 was 20.4 µM (inactive).
In the case of `CC1(C)C/N=C/C(C)(OCc2ccccc2)C(=O)NC(C)(C)C/N=C/C(C)(OCc2ccccc2)C(=O)N1` (stereo not given), the GI50 with SNB-19, with HL-60, in the experiment with MDA-N, in the experiment with NCI-H460, in the experiment on LOX IMVI and with HCC 2998 was > 10 µM (inactive) each time. Moreover, the GI50 in the experiment on 786-0, in the experiment on CCRF-CEM, in the experiment with SW-620, with NCI-H23, in the experiment with KM12 and in the experiment on U-251 was > 10 µM (inactive) each time. Moreover, the GI50 in the experiment on BT-549 was > 10 µM (inactive); in the experiment with HCT-15 it was greater than 10 µM; in the experiment with MDA-MB-231, > 10 µM (inactive); in the experiment on SK-MEL-28, > 10 µM (inactive); in the experiment with A549, > 10 µM (inactive); with HOP-92, 0.0569 µM (active). The GI50 in the experiment on UACC-257 was > 10 µM (inactive).
With `[N-]=[N+]=NC1=NNC2(C(=O)N1)c1ccccc1-c1ccccc12`, the GI50 with SNB-19, with HL-60, in the experiment with MDA-N, in the experiment with NCI-H460, with LOX IMVI and with CAKI-1 was > 100 µM (inactive) throughout. The GI50 in the experiment with HCC 2998, in the experiment with 786-0, with CCRF-CEM, in the experiment with SW-620, with NCI-H23 and with U-251 was > 100 µM (inactive) throughout. Also, the GI50 with BT-549 is > 100 µM (inactive); with HCT-15 it was greater than 100 µM; in the experiment with MDA-MB-231, > 100 µM (inactive); in the experiment with SK-MEL-28 it was > 100 µM (inactive); in the experiment with A549, > 100 µM (inactive); in the experiment with HOP-92 it was > 100 µM (inactive). In the experiment on UACC-257, the GI50 is > 100 µM (inactive).
